Laboratory results: the NIST ThermoML archive (doi:10.1021/je200811n)

Conditions: Hot wire method

F/C=C/C(F)(F)F [trans-1,3,3,3-tetrafluoropropene]
Conditions | thermal conductivity [W/m/K]
312.25 K, 581 kPa, Gas | 0.01478
312.31 K, 325 kPa, Gas | 0.01497
312.4 K, 200 kPa, Gas | 0.01456
312.41 K, 431 kPa, Gas | 0.01481
312.43 K, 101 kPa, Gas | 0.0144
312.48 K, 326 kPa, Gas | 0.01471
312.57 K, 582 kPa, Gas | 0.01477
312.62 K, 200 kPa, Gas | 0.0149
312.73 K, 430 kPa, Gas | 0.01467
312.8 K, 102 kPa, Gas | 0.01504
312.83 K, 325 kPa, Gas | 0.01474
312.92 K, 584 kPa, Gas | 0.01483
312.98 K, 200 kPa, Gas | 0.01488
313.1 K, 428 kPa, Gas | 0.01481
313.2 K, 102 kPa, Gas | 0.01509
313.2 K, 325 kPa, Gas | 0.01472
313.27 K, 585 kPa, Gas | 0.01483
313.39 K, 200 kPa, Gas | 0.01487
313.49 K, 429 kPa, Gas | 0.01476
313.6 K, 325 kPa, Gas | 0.01477
313.64 K, 102 kPa, Gas | 0.01508
313.67 K, 586 kPa, Gas | 0.01487
313.81 K, 200 kPa, Gas | 0.01496
313.88 K, 428 kPa, Gas | 0.01479
314.02 K, 325 kPa, Gas | 0.01482
314.08 K, 101 kPa, Gas | 0.01511
314.25 K, 200 kPa, Gas | 0.01496
314.56 K, 101 kPa, Gas | 0.01518
320.95 K, 10241 kPa, Liquid | 0.07419
320.95 K, 15330 kPa, Liquid | 0.07758
321 K, 1074 kPa, Liquid | 0.06717
321 K, 15328 kPa, Liquid | 0.07747
321 K, 15398 kPa, Liquid | 0.07709
321 K, 21637 kPa, Liquid | 0.08122
321.01 K, 5363 kPa, Liquid | 0.07064
321.01 K, 10238 kPa, Liquid | 0.07408
321.06 K, 1073 kPa, Liquid | 0.06692
321.06 K, 15400 kPa, Liquid | 0.07715
321.06 K, 21630 kPa, Liquid | 0.08106
321.08 K, 5360 kPa, Liquid | 0.07051
321.23 K, 96 kPa, Gas | 0.01565
321.24 K, 193 kPa, Gas | 0.01579
321.26 K, 302 kPa, Gas | 0.01598
321.31 K, 15324 kPa, Liquid | 0.07738
321.32 K, 10235 kPa, Liquid | 0.07406
321.34 K, 21627 kPa, Liquid | 0.08112
321.35 K, 1071 kPa, Liquid | 0.06648
321.36 K, 15404 kPa, Liquid | 0.0766
321.37 K, 5451 kPa, Liquid | 0.07074
321.39 K, 15326 kPa, Liquid | 0.07727
321.4 K, 5358 kPa, Liquid | 0.07043
321.42 K, 10233 kPa, Liquid | 0.07383
321.43 K, 1070 kPa, Liquid | 0.06675
321.43 K, 21621 kPa, Liquid | 0.08087
321.44 K, 5449 kPa, Liquid | 0.07064
321.45 K, 96 kPa, Gas | 0.01549
321.45 K, 15400 kPa, Liquid | 0.07716
321.46 K, 193 kPa, Gas | 0.01564
321.48 K, 301 kPa, Gas | 0.01576
321.5 K, 5355 kPa, Liquid | 0.07013
321.69 K, 96 kPa, Gas | 0.01537
321.69 K, 193 kPa, Gas | 0.01553
321.69 K, 301 kPa, Gas | 0.01571
321.73 K, 15326 kPa, Liquid | 0.07718
321.74 K, 21616 kPa, Liquid | 0.08084
321.76 K, 10233 kPa, Liquid | 0.07335
321.77 K, 1068 kPa, Liquid | 0.06659
321.77 K, 5449 kPa, Liquid | 0.07051
321.77 K, 15389 kPa, Liquid | 0.07714
321.85 K, 15325 kPa, Liquid | 0.077
321.85 K, 21616 kPa, Liquid | 0.08065
321.86 K, 5352 kPa, Liquid | 0.07024
321.87 K, 1067 kPa, Liquid | 0.06647
321.87 K, 5446 kPa, Liquid | 0.07039
321.88 K, 10232 kPa, Liquid | 0.07374
321.89 K, 15379 kPa, Liquid | 0.07673
321.93 K, 96 kPa, Gas | 0.01526
321.93 K, 301 kPa, Gas | 0.0156
321.94 K, 193 kPa, Gas | 0.01541
321.94 K, 862 kPa, Gas | 0.01585
321.98 K, 5353 kPa, Liquid | 0.07002
322.01 K, 717 kPa, Gas | 0.01564
322.18 K, 301 kPa, Gas | 0.01554
322.19 K, 193 kPa, Gas | 0.01534
322.19 K, 21613 kPa, Liquid | 0.0806
322.2 K, 15324 kPa, Liquid | 0.07701
322.23 K, 861 kPa, Gas | 0.01583
322.24 K, 5447 kPa, Liquid | 0.07031
322.25 K, 432 kPa, Gas | 0.01554
322.25 K, 1068 kPa, Liquid | 0.06595
322.25 K, 10235 kPa, Liquid | 0.0737
322.25 K, 15372 kPa, Liquid | 0.07646
322.27 K, 889 kPa, Gas | 0.01589
322.32 K, 715 kPa, Gas | 0.01567
322.32 K, 21607 kPa, Liquid | 0.08044
322.34 K, 302 kPa, Gas | 0.01575
322.34 K, 15322 kPa, Liquid | 0.0768
322.35 K, 5442 kPa, Liquid | 0.07009
322.37 K, 5357 kPa, Liquid | 0.07003
322.38 K, 1067 kPa, Liquid | 0.06625
322.4 K, 10234 kPa, Liquid | 0.07347
322.48 K, 588 kPa, Gas | 0.01563
322.52 K, 5368 kPa, Liquid | 0.06983
322.55 K, 859 kPa, Gas | 0.01582
322.57 K, 432 kPa, Gas | 0.01556
322.58 K, 886 kPa, Gas | 0.01586
322.65 K, 713 kPa, Gas | 0.01571
322.69 K, 301 kPa, Gas | 0.01554
322.7 K, 21605 kPa, Liquid | 0.08035
322.73 K, 15322 kPa, Liquid | 0.07671
322.75 K, 5443 kPa, Liquid | 0.07003
322.79 K, 1065 kPa, Liquid | 0.06618
322.8 K, 10233 kPa, Liquid | 0.07327
322.81 K, 193 kPa, Gas | 0.01577

Conditions | thermal conductivity [W/m/K]
313.15 K, Liquid | 0.06932
